Assay results from patent publication US20080051416A1, “Novel Compounds” (SMITHKLINE BEECHAM CORPORATION, priority 2004, published 2008).

Legend:
p38 = p38 (Homo sapiens, UniProt Q16539); test: Fluorescence Anisotropy Kinase Binding Assay; conditions: p38 enzyme 12 nM, fluorescent ligand 5 nM
Method: Fluorescence Anisotropy Kinase Binding Assay
The concentration of kinase enzyme should preferably be ≧1×Kf. The concentration of fluorescent ligand required will depend on the instrumentation used, and the fluorescent and physicochemical properties. The concentration used must be lower than the concentration of kinase enzyme, and preferably less than half the kinase enzyme concentration. A typical protocol is:
All components dissolved in Buffer of final composition 62.5 mM HEPES, pH 7.5, 1.25 mM CHAPS, 1.25 mM DTT, 12.5 mM MgCl2 3.3% DMSO.
p38 Enzyme concentration: 12 nM
Fluorescent ligand concentration: 5 nM
Test compound concentration: 0.1 nM-100 uM
Components incubated in 30 ul final volume in NUNC 384 well black microtitre plate until equilibrium reached (5-30 mins)
Fluorescence anisotropy read in LJL Acquest.
Definitions: Ki=dissociation constant for inhibitor binding
• Kf=dissociation constant for fluorescent ligand binding
The fluorescent ligand is the following compound: [drawing 22] which is derived from 5-[2-(4-aminomethylphenyl)-5-pyridin-4-yl-1H-imidazol-4-yl]-2-chlorophenol and rhodamine green. Results

Recombinant human p38α = biological target: T1, Recombinant human p38α (Homo sapiens, UniProt Q16539); test: HTRF Assay: Time-Resolved Fluorescence Resonance Energy Transfer Kinase Assay; type: biochemical; conditions: TR-FRET; MKK6-activated p38α 100 pM, biotinylated-GST-ATF2 substrate
T1 construct: His; made in house
Method: Time-Resolved Fluorescence Resonance Energy Transfer Kinase Assay
Recombinant human p38α was expressed as a His-tagged protein. To activate this protein, 3 μM unactivated p38α was incubated in 200 mM Hepes pH7.4, 625 mM NaCl, 1 mM DTT with 27 nM active MKK6 (Upstate), 1 mM ATP and 10 mM MgCl2. The activity of the MKK6-activated p38α was assessed using a time-resolved fluorescence resonance energy transfer (TR-FRET) assay.
Biotinylated-GST-ATF2 (residues 19-96, 400 nM final), ATP ([…] final) and MgCl2 (5 mM final) in assay buffer (40 mM HEPES pH 7.4, 1 mM DTT) were added to wells containing […] of various concentrations of compound or DMSO vehicle (3% final) in NUNC 384 well black plate. The reaction was initiated by the addition of MKK6-activated p38 (100 pM final) to give a total volume of 30 μl. Alternatively, various concentrations of compound were incubated with activated p38 for up to 90 min, followed by initiation with the addition of ATF2, ATP and MgCl2. The reaction was incubated for 120 minutes at room temperature, then terminated by the addition of 15 μl of 100 mM EDTA pH 7.4. Detection reagent (15 μl) in buffer (100 mM HEPES pH 7.4, 150 mM NaCl, 0.1% w/v BSA, 1 mM DTT) containing antiphosphothreonine-ATF2-71 polyclonal antibody (Cell Signalling Technology, Beverly Mass., USA) labelled with W-1024 europium chelate (Wallac OY, Turku, Finland), and APC-labelled streptavidin (Prozyme, San Leandro, Calif., USA) was added and the reaction was further incubated for 60 minutes at room temperature. The degree of phosphorylation of GST-ATF2 was measured using a Packard Discovery plate reader (Perkin-Elmer Life Sciences, Pangbourne, UK) as a ratio of specific 665 nm energy transfer signal to reference europium 620 nm signal. Differences in IC50 with or without preincubation of enzyme with compound was interpreted as time-dependence.

[1] = system: TGF-β-induced increases in fibronectin and thrombospondin; conditions: literature, Laping et al., 2002; cited from earlier work

p38, sequence (Q16539 whole entry): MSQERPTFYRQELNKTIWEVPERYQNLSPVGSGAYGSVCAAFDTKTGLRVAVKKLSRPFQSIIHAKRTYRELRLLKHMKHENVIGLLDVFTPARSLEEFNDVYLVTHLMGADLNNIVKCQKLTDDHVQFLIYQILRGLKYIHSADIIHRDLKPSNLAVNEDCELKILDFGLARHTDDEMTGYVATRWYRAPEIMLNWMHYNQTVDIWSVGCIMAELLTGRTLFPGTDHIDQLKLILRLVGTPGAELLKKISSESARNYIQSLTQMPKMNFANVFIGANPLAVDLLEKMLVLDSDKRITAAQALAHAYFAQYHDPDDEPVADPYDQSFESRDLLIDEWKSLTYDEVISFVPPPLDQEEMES
T1 sequence (Q16539 whole entry): as above

Row | IC50 (p38) | IC50 (Recombinant human p38α) | melting point | SMILES | inhibition of TGF-β-induced increases in fibronectin and thrombospondin [1]
1 | > 1.58 µM | > 1.58 µM | 240 to 244 °C | Cc1c(F)cc(C(=O)N[C@H](C)C(C)C)cc1-c1ccc(C(=O)NCC(C)(C)C)cc1C(=O)Nc1nccs1 [Example 13, N^3′-[(1R)-1,2-dimethylpropyl]-N4-(2,2-dimethylpropyl)-5′-fluoro-6′-methyl-N^2-1,3-thiazol-2-yl-2,3′,4-biphenyltricarboxamide] | 
2 |  |  | > 194 °C (dec.) | Cc1c(F)cc(C(=O)NCC(C)C)cc1-c1ccc(C(=O)NCC(C)(C)C)cc1C(=O)Nc1nccs1 [Example 14, N^4-(2,2-dimethylpropyl)-5′-fluoro-6′-methyl-N^3′-(2-methylpropyl)-N^2-1,3-thiazol-2-yl-2,3′,4-biphenyltricarboxamide] | 
3 |  |  | 179 to 183 °C | Cc1c(F)cc(C(=O)NCC2CC2)cc1-c1ccc(C(=O)NCC(C)(C)C)cc1C(=O)Nc1nccs1 [Example 15, N^3′-(cyclopropylmethyl)-N^4-(2,2-dimethylpropyl)-5′-fluoro-6′-methyl-N^2-1,3-thiazol-2-yl-2,3′,4-biphenyltricarboxamide] | 
4 |  |  | 159 to 164 °C | Cc1c(F)cc(C(=O)NCCC(C)C)cc1-c1ccc(C(=O)NCC(C)(C)C)cc1C(=O)Nc1nccs1 [Example 16, N^4-(2,2-dimethylpropyl)-5′-fluoro-6′-methyl-N^3′-(3-methylbutyl)-N^2-1,3-thiazol-2-yl-2,3′,4-biphenyltricarboxamide] | 

The next lines start with the molecule.

Row | SMILES | IC50 (p38) | IC50 (Recombinant human p38α) | melting point | inhibition of TGF-β-induced increases in fibronectin and thrombospondin [1]
5 | Cc1c(F)cc(C(=O)N[C@H](C)C(C)(C)C)cc1-c1ccc(C(=O)NCC(C)(C)C)cc1C(=O)Nc1nccs1 [Example 10, N^4-(2,2-dimethylpropyl)-5′-fluoro-6′-methyl-N^2-1,3-thiazol-2-yl-N^3′-[(1R)-1,2,2-trimethylpropyl]-2,3′,4-biphenyltricarboxamide] | > 1.58 µM | > 1.58 µM | > 125 °C (dec.) | 
6 | Cc1c(F)cc(C(=O)N[C@@H](C)C(C)C)cc1-c1ccc(C(=O)NCC(C)(C)C)cc1C(=O)Nc1nccs1 [Example 12, N^3′-[(1S)-1,2-dimethylpropyl]-N^4-(2,2-dimethylpropyl)-5′-fluoro-6′-methyl-N^2-1,3-thiazol-2-yl-2,3′,4-biphenyltricarboxamide] | > 1.58 µM | > 1.58 µM | 234 to 239 °C | 
7 | Cc1c(F)cc(C(=O)N[C@@H](C)C(C)(C)C)cc1-c1ccc(C(=O)NCC(C)(C)C)cc1C(=O)Nc1nccs1 [Example 25, N^4-(2,2-dimethylpropyl)-5′-fluoro-6′-methyl-N^2-1,3-thiazol-2-yl-N^3′-[(1S)-1,2,2-trimethylpropyl]-2,3′,4-biphenyltricarboxamide] | > 1.58 µM | > 1.58 µM | 160 to 165 °C | 
8 | Cc1c(F)cc(C(=O)N[C@H](C)CO)cc1-c1ccc(C(=O)NCC(C)(C)C)cc1C(N)=O [Example 75, N^4-(2,2-dimethylpropyl)-5′-fluoro-N^3′-[(1R)-2-hydroxy-1-methylethyl]-6′-methyl-2,3′,4-biphenyltricarboxamide] | > 15.8 µM | > 1.58 µM |  | 
9 | COC(=O)c1cc(C(=O)NCC(C)(C)C)ccc1-c1cc(C(=O)NCCO)ccc1C [Example 78, methyl 4-{[(2,2-dimethylpropyl)amino]carbonyl}-5′-{[(2-hydroxyethyl)amino]carbonyl}-2′-methyl-2-biphenylcarboxylate] | > 15.8 µM |  |  | 
10 | Cc1ccc(C(=O)NCCO)cc1-c1ccc(C(=O)NCC(C)(C)C)cc1C(=O)O [Example 86, 4-{[(2,2-dimethylpropyl)amino]carbonyl}-5′-{[(2-hydroxyethyl)amino]carbonyl}-2′-methyl-2-biphenylcarboxylic acid] | > 15.8 µM | > 25.1 µM |  | 
11 | COc1nccc(-c2c(-c3ccc(F)cc3)ncn2C2CCNCC2)n1 [SB-242235] |  |  |  | inhibited
